Measurements taken from patent US20250249001A1, “METHODS OF TREATING SUBSTANCE USE DISORDER WITH 4-(3-CYANOPHENYL)-6-PYRIDINYLPYRIMIDINE MGLU5 NEGATIVE ALLOSTERIC MODULATORS” (Tempero Bio, Inc., priority 2022, published 2025).

Experiments:
[1] = test system: voluntary home-cage alcohol drinking by Wistar rats; experiment: Home-cage alcohol drinking, repeated treatment (A-B-A design); format: in vivo
Description: Home-cage alcohol drinking method. Oral alcohol and water intake were examined using a two-bottle choice protocol, which is standard in the field and commonly used in our laboratory. Male Wistar rats (n=12) were first adapted to drinking from a 50 ml conical tube fitted with a standard stainless-steel ball bearing sipper tube that limits spillage. Then, two bottles were place on the cage daily. One bottle contained an alcohol solution and the other contained water. Bottles containing fresh solutions were weighed daily before and after a 24 hr access period. After drug treatment, bottles were weighed after 1 hr and 24 hrs of access. Each week, rats had 4-5 days of sweetened alcohol and water available and the remaining days only water.
Briefly, rats were first exposed to alcohol (10% v/v)+sucrose (5% w/v). versus water in the two bottles. Then, over a period of 6-weeks, the concentrations of alcohol and sucrose were gradually adjusted to alcohol (8% v/v)+sucrose (2% w/v) to achieve intake of pharmacologically relevant doses of alcohol. Rats were maintained at this concentration for the duration of the experiment for both acute (3.1.a) and chronic (3.1.b) home-cage drinking studies. Use of sweetened alcohol solutions in preclinical research provides face validity to the binge-intoxication stage of alcohol addiction in humans where sweeteners are commonly added to alcohol.
Repeated treatment with Compound 1. To evaluate effects of repeated treatment with Compound 1 on home-cage alcohol drinking, baseline intake of sweetened alcohol and water, and habituation to i.p. injections was conducted as described above in a separate group of male Wistar rats (n=12). During habituation to i.p. injections, rats were moved to a 7 day per week alcohol access schedule to allow for chronic daily treatment. Rats were then administered vehicle (4 consecutive days), Compound 1 (3 mg/kg, 7 consecutive days), then vehicle (4 consecutive days) according to an A-B-A experimental design for a total of 15 days. Access to alcohol was provided 1-hr after vehicle or Compound 1 injection. Alcohol and water intake were measured as described above after 1-hr and 24-hrs of access.

mGluR5 = conditions: cited from earlier work

Structure (SMILES): N#Cc1cc(Cl)cc(-c2cc(-c3ccc(F)cn3)ncn2)c1 [Compound 1, 3-chloro-5-[6-(5-fluoropyridin-2-yl)pyrimidin-4-yl]benzonitrile]
- H2O intake, 1-hr access, averaged across the 3 experimental phases ([1]; 3 mg/kg i.p. daily for 7 days): decreased water intake
- H2O intake, 24-hrs access, averaged across the experimental phases ([1]; 3 mg/kg i.p. daily for 7 days): reduction in H2O intake as compared to the first vehicle condition only
- alcohol intake, 24-hr access, averaged over each treatment condition ([1]; 3 mg/kg i.p. daily for 7 days): no effect
- average alcohol intake over the 7-day treatment phase, 1-hr access, vs Veh-1 and Veh-2 ([1]; 3 mg/kg i.p. daily for 7 days): significantly decreased alcohol intake
- H2O intake, 1-hr access, individual treatment days ([1]; 3 mg/kg i.p. daily, days 5-11): failed to identify a significant change at a particular treatment day
- H2O intake, 24-hrs access, individual treatment days ([1]; 3 mg/kg i.p. daily, days 5-11): significant reductions in H2O intake at days 7 and 11
- alcohol intake, 1-hr access, individual treatment days vs day 4 vehicle ([1]; 3 mg/kg i.p. daily, days 5-11): reduced alcohol intake only on day 5
- alcohol intake, 24-hr access, individual treatment days vs day 4 vehicle ([1]; 3 mg/kg i.p. daily, days 5-11): reduced alcohol intake only on day 5
- affinity for mGluR5 (mGluR5; following systemic administration in rats, mice, and primates): high affinity
- brain penetration (mGluR5; systemic administration): brain penetrant
